# Measured values as given in US10806785B2, “Immunomodulator compounds and methods of use” (Incyte Corporation, priority 2016, dated 2020).
# Biological target: PD-1/PD-L1 (Homo sapiens (Human), UniProt Q9NZQ7)
# Experiment: PD-1/PD-L1 binding assay (HTRF)
# Outline: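 Fc-tagged human PD-1 (25-167) and His-tagged PD-L1 (19-238), listed as […] and 10 nM final, preincubated 40 min with inhibitors in PBS pH 7.4, 0.05% Tween-20, 0.1% BSA, 1% DMSO, 25 °C. Eu anti-IgG/APC anti-His added, 60 min, 665/620 nm HTRF ratio; IC50 fitted from percent control activity.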
# Chain of PD-1/PD-L1 (Q9NZQ7 19-238): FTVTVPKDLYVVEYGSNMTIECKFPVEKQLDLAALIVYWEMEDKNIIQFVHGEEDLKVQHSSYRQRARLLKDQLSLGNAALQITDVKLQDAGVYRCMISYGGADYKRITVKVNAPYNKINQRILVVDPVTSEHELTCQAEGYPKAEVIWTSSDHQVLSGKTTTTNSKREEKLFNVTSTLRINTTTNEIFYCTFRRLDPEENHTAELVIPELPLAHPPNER
row,IC50 [nM],SMILES
1,≤ 10,"CCC1(C(=O)O)CCC(N2CCc3c(nc(C(=O)Nc4cccc(-c5cccc(NC(=O)c6nc7c(n6C)CCN(C6CCOCC6)C7)c5Cl)c4Cl)n3C)C2)CC1 (stereo not shown) [Example 99, 4-(2-((2,2′-dichloro-3′-(1-methyl-5-(tetrahydro-2H-pyran-4-yl)-4,5,6,7-tetrahydro-1H-imidazo[4,5-c]pyridine-2-carboxamido)-[1,1′-biphenyl]-3-yl)carbamoyl)-1-methyl-1,4,6,7-tetrahydro-5H-imidazo[4,5-c]pyridin-5-yl)-1-ethylcyclohexane-1-carboxylic acid]"
2,≤ 10,"Cc1c(NC(=O)c2nc3c(n2C)CCN(CCc2ccc(C(=O)O)cc2)C3)cccc1-c1cccc(NC(=O)c2nc3c(n2C)CCN(C)C3)c1Cl [Example 101, 4-(2-(2-((2′-chloro-3′-(1,5-dimethyl-4,5,6,7-tetrahydro-1H-imidazo[4,5-c]pyridine-2-carboxamido)-2-methyl-[1,1′-biphenyl]-3-yl)carbamoyl)-1-methyl-1,4,6,7-tetrahydro-5H-imidazo[4,5-c]pyridin-5-yl)ethyl)benzoic acid]"
3,≤ 10,"Cc1c(NC(=O)c2nc3c(n2C)CCN(CC24CCC(C(=O)O)(CC2)C4)C3)cccc1-c1cccc(NC(=O)c2nc3c(n2C)CCN(C)C3)c1Cl [Example 102, 4-((2-((2′-chloro-3′-(1,5-dimethyl-4,5,6,7-tetrahydro-1H-imidazo[4,5-c]pyridine-2-carboxamido)-2-methyl-[1,1′-biphenyl]-3-yl)carbamoyl)-1-methyl-1,4,6,7-tetrahydro-5H-imidazo[4,5-c]pyridin-5-yl)methyl)bicyclo[2.2.1]heptane-1-carboxylic acid]"
4,≤ 10,"Cc1c(NC(=O)c2nc3c(n2C)CCN(CC24CCC(C(=O)O)(CC2)CC4)C3)cccc1-c1cccc(NC(=O)c2nc3c(n2C)CCN(C)C3)c1Cl [Example 103, 4-((2-(2′-chloro-3′-(1,5-dimethyl-4,5,6,7-tetrahydro-1H-imidazo[4,5-c]pyridine-2-carboxamido)-2-methylbiphenyl-3-ylcarbamoyl)-1-methyl-6,7-dihydro-1H-imidazo[4,5-c]pyridin-5(4H)-yl)methyl)bicyclo[2.2.2]octane-1-carboxylic acid]"
5,≤ 10,"CCC1(C(=O)O)CCC(N2CCc3c(nc(C(=O)Nc4cccc(-c5cccc(NC(=O)c6nc7c(n6C)CCN(C)C7)c5Cl)c4C)n3C)C2)CC1 (stereo not shown) [Example 104, 4-(2-((2′-chloro-3′-(1,5-dimethyl-4,5,6,7-tetrahydro-1H-imidazo[4,5-c]pyridine-2-carboxamido)-2-methyl-[1,1′-biphenyl]-3-yl)carbamoyl)-1-methyl-1,4,6,7-tetrahydro-5H-imidazo[4,5-c]pyridin-5-yl)-1-ethylcyclohexane-1-carboxylic acid]"
6,≤ 10,"CCN1CCc2c(nc(C(=O)Nc3cccc(-c4cccc(NC(=O)c5nc6c(n5C)CCN(C5CCC(C)(C(=O)O)CC5)C6)c4C)c3Cl)n2C)C1 (stereo not shown) [Example 105, 4-(2-((2′-chloro-3′-(5-ethyl-1-methyl-4,5,6,7-tetrahydro-1H-imidazo[4,5-c]pyridine-2-carboxamido)-2-methyl-[1,1′-biphenyl]-3-yl)carbamoyl)-1-methyl-1,4,6,7-tetrahydro-5H-imidazo[4,5-c]pyridin-5-yl)-1-methylcyclohexane-1-carboxylic acid]"
7,≤ 10,"Cc1c(NC(=O)c2nc3c(n2C)CCN(C2CCC(C)(C(=O)O)CC2)C3)cccc1-c1cccc(NC(=O)c2nc3c(n2C)CCN(C(C)C)C3)c1Cl (stereo not shown) [Example 106, 4-(2-((2′-chloro-3′-(5-isopropyl-1-methyl-4,5,6,7-tetrahydro-1H-imidazo[4,5-c]pyridine-2-carboxamido)-2-methyl-[1,1′-biphenyl]-3-yl)carbamoyl)-1-methyl-1,4,6,7-tetrahydro-5H-imidazo[4,5-c]pyridin-5-yl)-1-methylcyclohexane-1-carboxylic acid]"
